Here are results for 27 compounds from patent US8633019B2, “Methods for treating spinal muscular atrophy” (PTC Therapeutics, Inc., priority 2008, dated 2014).

Each structure is given as a SMILES string.

The test system of this assay is inclusion of exon 7 of SMN2 into mRNA transcribed from the SMN2-A minigene. The assay can be described thus: Fold Activation: luciferase reporter, SMN2-A minigene construct versus SMN2-G minigene construct, in stably transfected HEK293H cells. The conditions noted are these: ratio of First Activation using the SMN2-A construct divided by Second Activation using the SMN2-G construct. It is filed as cell-based, human. The source says:
In a specific embodiment, the first cell and the second cell are the same cell type. In some embodiments, the first cell and the second cell are the same cell type and are obtained from the same source or clone. In some embodiments, the first reporter gene and the second reporter gene are the same reporter gene. In other embodiments, the first reporter gene and second reporter gene are different reporter genes. A compound that increases the inclusion of exon 7 of SMN2 into mRNA transcribed from the SMN2 gene will result in a Fold Activation derived from a higher ratio of the First Activation:
[formula] [formula] [formula] In some embodiments, both the amount and activity of the first and second fusion proteins are detected. Accordingly, as used herein, the Fold Activation for a compound that modulates the inclusion of exon 7 of SMN2 into mRNA transcribed from the SMN2 gene is a ratio of the First Activation divided by the Second Activation.
The HEK293H cell line stably transfected with the SMN2-A minigene construct was utilized in the HTS. HTS was performed by plating 10,000 cells in each well of a 384-well plate. Each 384-well plate contained 64 control wells used as an internal standard: 16 wells were used as a total control (no test compound, only compound solvent), 16 wells were used as reference standards representing background readings (high inhibitor concentration) and 32 wells were prepared to provide an 8-point dose response curve of puromycin as a non-specific standard control inhibitor. The remaining 320 wells contained individual test compounds. The cells were grown overnight in the presence of test compounds or controls at 37° C. in 5% CO2. After 24 hours, the amount of luminescence was determined using a ViewLux Imaging system (Perkin Elmer).
Using the SMN2-A minigene construct, a HTS was performed testing a compound library. The amount of the fusion protein expressed from the minigene construct was determined by measuring luciferase activity as described herein. […] Enhancers of fusion protein expression were defined as those compounds that increased luciferase activity by at least three standard deviations above the mean. Based on this analysis, test compounds of Formula (I) were identified as hits and were subsequently confirmed by testing the compounds under the same conditions as in the original HTS. To ensure that the increase in luciferase activity detected in the HTS was due to increased inclusion of exon 7 of SMN2 into mRNA transcripts from the SMN2-A minigene construct, each compound was tested in two different cell lines: the cell line, which was used in the original HTS (HEK293H containing the SMN2-A minigene construct), and a HEK293H cell line that contained the SMN2-G minigene construct.
Each compound was tested at four concentrations: 15 μM, 3 μM, 0.6 μM, 0.12 μM.
The Fold Activation results are provided as a ratio of a First Activation using the SMN-2A construct divided by a Second Activation using the SMN-2G construct, wherein 1 star (*) represents active compounds with a fold increase ratio between 1.1-1.3; 2 stars (**) represent active compounds with a fold increase ratio between 1.3-2.0; 3 stars (***) represent active compounds with a fold increase ratio greater than 2.0.
For orientation: A reporter such as luciferase makes a cellular process visible.
For the compound `O=C(O)c1ccc2oc(-c3ccc(N4CCCCC4)nc3)nc2c1` [Cpd 91, 2-(3,4,5,6-tetrahydro-2H-[1,2′]bipyridinyl-5′-yl)-benzooxazole-5-carboxylic acid], the “Activity (Fold Activation)” value was “** (2 stars (**) represent active compounds with a fold increase ratio between 1.3-2.0)”. The same measure for `Cc1ccc2nc(-c3cccc(C(=O)O)c3)oc2c1` [Cpd 2, 3-(6-methyl-benzooxazol-2-yl)-benzoic acid]: “* (1 star (*) represents active compounds with a fold increase ratio between 1.1-1.3)”; for `CC(C)(C)c1ccc2oc(-c3cccc(C(=O)O)c3)nc2c1` [Cpd 6, 3-(5-tert-butyl-benzooxazol-2-yl)-benzoic acid]: “** (2 stars (**) represent active compounds with a fold increase ratio between 1.3-2.0)”; for `NC(=O)c1cccc(-c2nc3ccc(NCCc4ccccc4)cc3o2)c1` [Cpd 73, 3-(6-phenethylamino-benzooxazol-2-yl)-benzamide]: “* (1 star (*) represents active compounds with a fold increase ratio between 1.1-1.3)”. As for `O=C(O)c1ccc2oc(-c3cccc(OC(F)(F)F)c3)nc2c1` [Cpd 105, 2-(3-trifluoromethoxy-phenyl)-benzooxazole-5-carboxylic acid], the “Activity (Fold Activation)” value is listed as “* (1 star (*) represents active compounds with a fold increase ratio between 1.1-1.3)”.

Regarding `O=C(O)c1ccc2oc(-c3ccc(N4CCCC4=O)cc3)nc2c1` [Cpd 28, 2-[4-(2-oxo-pyrrolidin-1-yl)-phenyl]-benzooxazole-5-carboxylic acid], the “Activity (Fold Activation)” value is given as “** (2 stars (**) represent active compounds with a fold increase ratio between 1.3-2.0)”. As to `COc1ccc(-c2nc3cc(C(=O)O)ccc3o2)cc1` [Cpd 39, 2-(4-methoxy-phenyl)-benzooxazole-5-carboxylic acid], the “Activity (Fold Activation)” value is “** (2 stars (**) represent active compounds with a fold increase ratio between 1.3-2.0)”. Next, `O=C(O)c1cccc(-c2nc3ccc(C(=O)N4CCCC4)cc3o2)c1` [Cpd 71, 3-[6-(pyrrolidine-1-carbonyl)-benzooxazol-2-yl]-benzoic acid]: “** (2 stars (**) represent active compounds with a fold increase ratio between 1.3-2.0)”; `Cc1ccc2nc(-c3ccc(C(=O)O)cc3)oc2c1` [Cpd 11, 4-(6-methyl-benzooxazol-2-yl)-benzoic acid]: “** (2 stars (**) represent active compounds with a fold increase ratio between 1.3-2.0)”; `O=C(O)c1ccc2nc(-c3cccnc3)oc2c1` [Cpd 69, 2-pyridin-3-yl-benzooxazole-6-carboxylic acid]: “* (1 star (*) represents active compounds with a fold increase ratio between 1.1-1.3)”.

In the case of `COc1ccc2oc(-c3cccc(C(=O)O)c3)nc2c1` [Cpd 32, 3-(5-methoxy-benzooxazol-2-yl)-benzoic acid], the “Activity (Fold Activation)” value is “*** (3 stars (***) represent active compounds with a fold increase ratio greater than 2.0)”. Next, `O=C(O)c1cccc(-c2nc3ccc(N4CCCCC4)cc3o2)c1` [Cpd 41, 3-(6-piperidin-1-yl-benzooxazol-2-yl)-benzoic acid]: “*** (3 stars (***) represent active compounds with a fold increase ratio greater than 2.0)”. The same measure for `Cc1ccc(-c2nc3cc(C(=O)O)ccc3o2)cc1` [Cpd 38, 2-p-tolyl-benzooxazole-5-carboxylic acid]: “*** (3 stars (***) represent active compounds with a fold increase ratio greater than 2.0)”; for `O=C(O)c1ccc2oc(-c3ccc(N4CCOCC4)cc3)nc2c1` [Cpd 51, 2-(4-morpholin-4-yl-phenyl)-benzooxazole-5-carboxylic acid]: “** (2 stars (**) represent active compounds with a fold increase ratio between 1.3-2.0)”; for `O=C(O)c1ccc2oc(-c3ccc(NCCCCl)cc3)nc2c1` [Cpd 54, 2-[4-(3-chloro-propylamino)-phenyl]-benzooxazole-5-carboxylic acid]: “** (2 stars (**) represent active compounds with a fold increase ratio between 1.3-2.0)”.

`O=C(O)c1ccc2oc(-c3ccc(N4CCOCC4)nc3)nc2c1` [Cpd 90, 2-(6-morpholin-4-yl-pyridin-3-yl)-benzooxazole-5-carboxylic acid]: the “Activity (Fold Activation)” value was “** (2 stars (**) represent active compounds with a fold increase ratio between 1.3-2.0)”. Next, `O=C(O)c1cccc(-c2nc3cc(N4CCCC4)ccc3o2)c1` [Cpd 43, 3-(5-pyrrolidin-1-yl-benzooxazol-2-yl)-benzoic acid]: “** (2 stars (**) represent active compounds with a fold increase ratio between 1.3-2.0)”; `O=C(O)c1cccc(-c2nc3cc(-c4cc5ccccc5o4)ccc3o2)c1` [Cpd 31, 3-(5-benzofuran-2-yl-benzooxazol-2-yl)-benzoic acid]: “** (2 stars (**) represent active compounds with a fold increase ratio between 1.3-2.0)”; `NC(=O)c1cccc(-c2nc3ccc(Nc4ccccc4)cc3o2)c1` [Cpd 106, 3-(6-phenylamino-benzooxazol-2-yl)-benzamide]: “* (1 star (*) represents active compounds with a fold increase ratio between 1.1-1.3)”. Next, `O=C(O)c1cccc(-c2nc3ccc(N4CCOCC4)cc3o2)c1` [Cpd 42, 3-(6-morpholin-4-yl-benzooxazol-2-yl)-benzoic acid]: “** (2 stars (**) represent active compounds with a fold increase ratio between 1.3-2.0)”; `O=C(O)c1ccc2oc(-c3ccc(F)cc3)nc2c1` [Cpd 55, 2-(4-fluoro-phenyl)-benzooxazole-5-carboxylic acid]: “* (1 star (*) represents active compounds with a fold increase ratio between 1.1-1.3)”; `CCC(C)(C)c1ccc2oc(-c3cccc(C(=O)O)c3)nc2c1` [Cpd 22, 3-[5-(1,1-dimethyl-propyl)-benzooxazol-2-yl]-benzoic acid]: “** (2 stars (**) represent active compounds with a fold increase ratio between 1.3-2.0)”. Next, `CN1CCN(c2ccc3nc(-c4cccc(C(=O)O)c4)oc3c2)CC1` [Cpd 48, 3-[6-(4-methyl-piperazin-1-yl)-benzooxazol-2-yl]-benzoic acid]: “* (1 star (*) represents active compounds with a fold increase ratio between 1.1-1.3)”; `O=C(O)c1ccc2nc(-c3ccco3)oc2c1` [Cpd 65, 2-furan-2-yl-benzooxazole-6-carboxylic acid]: “** (2 stars (**) represent active compounds with a fold increase ratio between 1.3-2.0)”; `O=C(O)c1cccc(-c2nc3ccc(Cn4ccnc4)cc3o2)c1` [Cpd 8, 3-(6-imidazol-1-ylmethyl-benzooxazol-2-yl)-benzoic acid]: “** (2 stars (**) represent active compounds with a fold increase ratio between 1.3-2.0)”.

Turning to `CC(C)c1ccc(-c2ccc3oc(-c4cccc(C(=O)O)c4)nc3c2)cc1` [Cpd 36, 3-[5-(4-isopropyl-phenyl)-benzooxazol-2-yl]-benzoic acid], the “Activity (Fold Activation)” value is listed as “** (2 stars (**) represent active compounds with a fold increase ratio between 1.3-2.0)”.

Take `O=C(O)c1ccc2oc(-c3ccc(-c4ccccc4)cc3)nc2c1` [Cpd 19, 2-biphenyl-4-yl-benzooxazole-5-carboxylic acid]: the “Activity (Fold Activation)” value is given as “** (2 stars (**) represent active compounds with a fold increase ratio between 1.3-2.0)”.
